# Measurements as given in patent US7759373B2, “Large conductance calcium-activated K channel opener” (Mitsubishi Tanabe Pharma Corporation, priority 2001, dated 2010).
# How the values were obtained:
# [1] = test system: isolated rabbit urinary bladder; test: Relaxation effect on potassium-induced contraction of isolated rabbit urinary bladder; assay type: cell-based; details: Oryctolagus cuniculus; 50% relaxation concentration; high-K+ (30 mM) pre-contracted rabbit bladder strips; relaxation as percentage of the maximum produced by 0.1 mM papaverine; read-out: EC50 value range
# Protocol: Relaxation effect on potassium-induced contraction of isolated rabbit urinary bladder
# Urinary bladder was isolated from Male NZW rabbits (2.0-3.5 kg) and immersed in ice-cold Krebs-bicarbonate solution (in mM: 118 NaCl, 4.7 KCl, 1.2, 2.5 CaCl2, MgSO4, 1.2 KH2PO4, 11 glucose, 25 NaHCO3). The urinary bladder was cut into longitudinal strips (5 mm length, 3-4 mm width) after mucosal layer was removed. Preparations were mounted in organ baths containing 10 ml of Krebs solution maintained at 37° C. and gassed with 95% O2/5% CO2. Accordingly, preparations were stretched with an initial tension of 2.0±1.0 g, and changes in isometric tension were measured by force-displacement transducer. The preparations were pre-contracted by changing organ-bath solution into high-K^+ (30 mM) Krebs solution (in mM: 92.7 NaCl, 30 KCl, 1.2, 2.5 CaCl2, MgSO4, 1.2 KH2PO4, 11 glucose, 25 NaHCO3).
# After stable tension was obtained, compounds were added into organ baths cumulatively (10^−8M-10^−4M). The effects of compounds were expressed as a percentage of the maximum relaxation produced by 0.1 mM papaverine. 50% relaxation concentration (EC50) was calculated and EC50 value range (μM) of the compounds of the present invention was shown in the following Table 64 with a rank of A, B or C. These ranges are as mentioned below. 3≧C≧1≧B≧0.5≧A
# [2] = test system: rhythmic bladder contractions induced by substance P; test: Inhibitory effect on the rhythmic bladder contractions induced by substance P in anesthetized rats; assay type: in vivo, rat; details: time during which frequency of rhythmic contraction was completely inhibited, 0.25 mg/kg of the compound, substance P infusion
# Method in brief: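 Urethane-anesthetized female Sprague-Dawley rats with rhythmic bladder contractions driven by i.v. substance P (0.33 μg/kg/min). Compound given i.v. in saline/0.5% Tween 80 once contractions stable 15 min; intravesical pressure monitored, duration of 100% inhibition ranked A ≥20, B ≥10, C <10 min.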
Structure (SMILES),EC50 [1],100% inhibition time range [2]
COc1ccc(-c2nc(CC(=O)O)c(-c3cccs3)o2)cc1 [Preparation Example 155],1000 to 3000 nM,B (A≧20>B≧10>C (minute))
O=C(O)Cc1nc(-c2ccc(F)cc2)oc1-c1csc2ccccc12 [Preparation Example 158],1000 to 3000 nM,C (A≧20>B≧10>C (minute))
CCc1nc(-c2ccc(F)cc2)[nH]c1-c1ccsc1 [Preparation Example 171],1000 to 3000 nM,B (A≧20>B≧10>C (minute))
CCCc1nc(-c2ccc(F)cc2)[nH]c1-c1ccsc1 [Preparation Example 172],1000 to 3000 nM,C (A≧20>B≧10>C (minute))
O=C(O)Cc1nc(-c2ccc(F)cc2)oc1-c1ccsc1 [Preparation Example 197],1000 to 3000 nM,C (A≧20>B≧10>C (minute))
O=C(O)Cc1nc(-c2ccc(F)cc2)oc1-c1ccc(C(F)(F)F)cc1 [Preparation Example 244],1000 to 3000 nM,B (A≧20>B≧10>C (minute))
O=C(O)Cc1nc(-c2ccc(Cl)cc2)oc1-c1ccc(Br)s1 [Preparation Example 245],1000 to 3000 nM,C (A≧20>B≧10>C (minute))
COc1ccc(-c2nc(CC(=O)O)c(-c3ccccc3F)o2)cc1 [Preparation Example 247],1000 to 3000 nM,C (A≧20>B≧10>C (minute))
CC(C)c1ccc(-c2oc(-c3ccc(F)cc3)nc2CC(=O)O)cc1 [Preparation Example 248],1000 to 3000 nM,B (A≧20>B≧10>C (minute))
Cn1c(-c2oc(-c3ccc(F)cc3)nc2CC(=O)O)cc2ccccc21 [Preparation Example 249],1000 to 3000 nM,B (A≧20>B≧10>C (minute))
O=C(O)Cc1nc(-c2ccc3occc3c2)oc1-c1ccsc1 [Preparation Example 255],1000 to 3000 nM,B (A≧20>B≧10>C (minute))
Cc1ccc(-c2nc(CC(=O)O)c(-c3ccccc3)o2)cc1 [Preparation Example 262],1000 to 3000 nM,C (A≧20>B≧10>C (minute))
O=C(O)Cc1nc(-c2ccc(Cl)cc2)oc1C1CCCC1 [Preparation Example 265],1000 to 3000 nM,–
CC(C)c1ccc(-c2nc(CC(=O)O)c(-c3ccc(Cl)s3)o2)cc1 [Preparation Example 273],1000 to 3000 nM,C (A≧20>B≧10>C (minute))
"CCOC(=O)C(N)c1nc(-c2ccc(F)cc2)oc1-c1ccc(Cl)s1 (centres unmarked) [Preparation Example 372, ethyl 2-amino-2-[5-(5-chlorothiophen-2-yl)-2-(4-fluorophenyl)-oxazol-4-yl]acetate]",1000 to 3000 nM,–
CCCc1nc(-c2ccccn2)[nH]c1-c1cccs1 [Preparation example 5],1000 to 3000 nM,–
CCCc1nc(-c2ccc[nH]2)[nH]c1-c1ccccc1 [Preparation example 35],1000 to 3000 nM,–
CCCc1nc(-c2cccc3ccccc23)[nH]c1-c1ccccc1 [Preparation example 36],1000 to 3000 nM,–
CCCc1nc(-c2cc3ccccc3o2)[nH]c1-c1ccccc1 [Preparation example 38],1000 to 3000 nM,–
CCCc1nc(-c2ccccc2[N+](=O)[O-])[nH]c1-c1ccccc1 [Preparation example 39],1000 to 3000 nM,–
CCc1nc(-c2cccc(C#N)c2)[nH]c1-c1cccnc1 [Preparation example 57],1000 to 3000 nM,–
CCc1nc(-c2ccc(C)nc2)[nH]c1-c1ccsc1 [Preparation example 81],1000 to 3000 nM,–
CCCc1nc(-c2ccc(F)cc2)[nH]c1-c1cccc(OC)c1 [Preparation example 96],1000 to 3000 nM,–
COCc1nc(-c2ccc(F)cc2)[nH]c1-c1ccccc1 [Preparation example 121],1000 to 3000 nM,–
CSCc1nc(-c2cccc(F)c2)[nH]c1-c1ccccc1 [Preparation example 131],1000 to 3000 nM,–

# Continued, in another order:
EC50 [1],Structure (SMILES),100% inhibition time range [2]
1000 to 3000 nM,"O=C([O-])Cc1nc(-c2ccc(F)cc2)oc1-c1ccc(Cl)s1.[Na+] [Preparation Example 152, 5-(5-chloro-thiophen-2-yl)-2-(4-fluorophenyl)oxazol-4-yl acetic acid sodium salt]",B (A≧20>B≧10>C (minute))
500 to 1000 nM,Cc1nc(-c2ccc(F)cc2)[nH]c1-c1ccsc1 [Preparation Example 168],B (A≧20>B≧10>C (minute))
500 to 1000 nM,C[S+]([O-])Cc1nc(-c2ccc(F)cc2)[nH]c1-c1ccsc1 (centres unmarked) [Preparation Example 181],B (A≧20>B≧10>C (minute))
≤ 500 nM,FCCc1nc(-c2ccc(F)cc2)[nH]c1-c1ccccc1 [Preparation Example 182],B (A≧20>B≧10>C (minute))
500 to 1000 nM,Cc1nc(-c2ccc(F)cc2)[nH]c1-c1cccnc1 [Preparation Example 187],B (A≧20>B≧10>C (minute))
500 to 1000 nM,O=C(O)Cc1nc(-c2ccc(F)cc2)oc1-c1ccc(F)cc1 [Preparation Example 235],B (A≧20>B≧10>C (minute))
500 to 1000 nM,O=C(O)Cc1nc(-c2ccc(F)cc2)oc1-c1ccc(Cl)c(Cl)c1 [Preparation Example 240],C (A≧20>B≧10>C (minute))
≤ 500 nM,O=C(O)Cc1nc(-c2ccc(F)cc2)oc1-c1ccc(Cl)cc1 [Preparation Example 243],A (A≧20>B≧10>C (minute))
500 to 1000 nM,COc1ccc(-c2nc(CC(=O)O)c(-c3ccc(F)c(F)c3)o2)cc1 [Preparation Example 246],B (A≧20>B≧10>C (minute))
500 to 1000 nM,O=C(O)Cc1nc(-c2ccc(F)cc2)oc1-c1cccc(F)c1F [Preparation Example 252],C (A≧20>B≧10>C (minute))
500 to 1000 nM,O=C(O)Cc1nc(-c2ccc(F)cc2)oc1-c1ccc(Cl)c(F)c1 [Preparation Example 253],A (A≧20>B≧10>C (minute))
≤ 500 nM,O=C(O)Cc1nc(-c2ccc(F)cc2)oc1-c1ccc(Br)s1 [Preparation Example 256],C (A≧20>B≧10>C (minute))
≤ 500 nM,Cc1cc(-c2oc(-c3ccc(F)cc3)nc2CC(=O)O)sc1Cl [Preparation Example 257],B (A≧20>B≧10>C (minute))
≤ 500 nM,O=C(O)Cc1nc(-c2cc3ccccc3s2)oc1-c1cccs1 [Preparation Example 267],C (A≧20>B≧10>C (minute))
≤ 500 nM,Cc1ccc(-c2nc(CC(=O)O)c(-c3cccs3)o2)s1 [Preparation Example 268],C (A≧20>B≧10>C (minute))
≤ 500 nM,O=C(O)Cc1nc(-c2ccc3occc3c2)oc1-c1cccs1 [Preparation Example 269],B (A≧20>B≧10>C (minute))

EC50 [1],Structure (SMILES),100% inhibition time range [2]
500 to 1000 nM,O=C(O)Cc1nc(-c2cc3ccccc3s2)oc1-c1ccc(Cl)s1 [Preparation Example 271],C (A≧20>B≧10>C (minute))
≤ 500 nM,O=C(O)Cc1nc(-c2ccc3occc3c2)oc1-c1ccc(Cl)s1 [Preparation Example 272],B (A≧20>B≧10>C (minute))
≤ 500 nM,O=C(O)Cc1nc(-c2ccc(Cl)cc2)oc1-c1ccc(Cl)s1 [Preparation Example 275],A (A≧20>B≧10>C (minute))
500 to 1000 nM,O=C(O)Cc1nc(-c2ccccc2O)oc1-c1cccs1 [Preparation Example 277],C (A≧20>B≧10>C (minute))
≤ 500 nM,O=C(O)Cc1[nH]c(-c2cc3ccccc3s2)nc1-c1ccc(Cl)cc1 [Preparation Example 355],–
500 to 1000 nM,CN(C)c1ccc(-c2nc(-c3cccs3)c(CC(=O)O)o2)cn1 [Preparation Example 506],–
≤ 500 nM,COc1ccc(-c2nc(-c3cccs3)c(CC(=O)O)o2)cc1 [Preparation Example 507],–
≤ 500 nM,COc1ccc(-c2nc(-c3ccsc3)c(CC(=O)O)s2)cc1 [Preparation Example 597],–
≤ 500 nM,CCc1nc(-c2csc(Br)c2)[nH]c1-c1cccnc1 [Preparation example 19],–
≤ 500 nM,CCCc1nc(-c2ccsc2)[nH]c1-c1ccccc1 [Preparation example 33],–
500 to 1000 nM,CCc1nc(-c2ccc(F)cc2)[nH]c1-c1cnccn1 [Preparation example 49],–
≤ 500 nM,CCc1nc(-c2ccc(F)cc2)[nH]c1-c1nccs1 [Preparation example 51],–
≤ 500 nM,CCc1nc(-c2ccc(F)cc2)[nH]c1-c1cscn1 [Preparation example 52],–
≤ 500 nM,CCc1nc(-c2ccc(F)cc2)[nH]c1-c1ccccc1OC [Preparation example 84],–
500 to 1000 nM,CCCc1nc(-c2ccc(F)cc2)[nH]c1-c1ccccn1 [Preparation example 97],–
